The values below come from PubChem BioAssay AID1645848.

Broadly, the kinetic solubility is solubility judged after dilution from a stock solution rather than from solid.

≈ marks a conversion by molar mass, not a printed value.

For this data set the following is noted: buffer; pH 7.4; 6.0 h; 150.0 µM.
Molecule `Cc1nc2c(-c3ccccc3)cnn2c(N)c1-c1ccccc1` displayed a kinetic solubility below 1 µg/mL.

With `COc1ccc(OCc2ccc(-c3nc(C#N)c(NC(C)c4ccccc4)o3)o2)cc1` (stereo unspecified), the kinetic solubility was below 1 µg/mL.

Consider `Cc1ccc(S(=O)(=O)Nc2cnccc2C(=O)Nc2nc(-c3cccc(Cl)c3)cs2)cc1`, for which the kinetic solubility is below 1 µg/mL.

In turn, `O=C(Nc1ncc(Cc2ccc(C(F)(F)F)cc2)s1)c1ccc(-c2ccc([N+](=O)[O-])cc2)o1` had a solubility (kinetic) below 1 µg/mL.

In turn, `CCc1ccc(NC(=O)c2[nH]c(C)c(C(C)=O)c2C)cc1[S+](=O)([O-])Nc1ccccc1C#N` returned a kinetic solubility of 40.3 µg/mL (≈ 86.8 µM).

`CCC(=O)NC(c1ccco1)c1cc(Cl)c2cccnc2c1O` (stereo unspecified) returned a kinetic solubility below 1 µg/mL.

`COc1cccc(CNc2ccc(S(=O)(=O)Nc3cccnc3)cc2)c1O`: the kinetic solubility was found to be 3.93 µg/mL (≈ 10.2 µM).

`COc1ccc(-c2ccc3ncc(Nc4ccncc4)n3n2)cc1OC` showed a solubility (kinetic) of 31.9 µg/mL (≈ 91.9 µM).

`CN(C)c1cccc(-c2cnc(N3CCC(c4ncc[nH]4)CC3)s2)c1` had a kinetic solubility of 32.7 µg/mL (≈ 92.5 µM).

With `COc1ccc(Cl)cc1C(=O)Nc1ccc(NC(=O)c2ccco2)cc1`, the solubility (kinetic) is below 1 µg/mL.

In turn, `CCN(c1ccccc1)S(=O)(=O)c1c(C)nc2scc(C)n2c1=O` returned a solubility (kinetic) above 54 µg/mL.

Consider `CC(=O)Nc1nc(-c2ccc3c(c2)CCN3C(=O)c2ccccc2C)c(C)s1`, for which the kinetic solubility was below 1 µg/mL.

`CNc1oc(-c2cccc3ccccc23)nc1C(=O)Nc1cccc(C#N)c1`: the solubility (kinetic) is below 1 µg/mL.

`CCOc1cccc(C(=O)Nc2nc3c(s2)CC(C(C)(C)C)CC3)c1` (stereo unspecified) returned a kinetic solubility below 1 µg/mL.

Turning to `CC(C)(C)c1ccc(S(=O)(=O)N2CCC(c3ccncc3)CC2)cc1`, the solubility (kinetic) was below 1 µg/mL.

For the molecule `CC(O)(C#Cc1ccc2c(c1)N(c1nc(N)ncc1Cl)CC2)c1nccs1` (stereo unspecified), the kinetic solubility amounted to 11.9 µg/mL (≈ 29.9 µM).

Molecule `O=C(Nc1ccc(N2CCN(c3ncccc3C(F)(F)F)CC2)nc1)c1cccs1` came in with a kinetic solubility below 1 µg/mL.

Turning to `CN(C(=O)CSc1nc2ccc(NC(=O)c3ccc(F)cc3)cc2s1)c1ccccc1`, the solubility (kinetic) was below 1 µg/mL.

In the case of `Cc1noc(C)c1-c1ccc2ncnc(NCc3ccc4[nH]ccc4c3)c2c1`, the kinetic solubility was below 1 µg/mL.

As to `C[C@H]1CCC[C@H](O)CCC/C=C/c2cc(O)cc(O)c2C(=O)O1`, the kinetic solubility came out at 17.1 µg/mL (≈ 53.2 µM).

`COc1cccc(CNc2ccc(S(=O)(=O)Nc3ncccn3)cc2)c1O`: the solubility (kinetic) was above 57 µg/mL.

As to `Cc1ccccc1S(=O)(=O)Nc1cnccc1C(=O)Nc1nc(-c2ccccc2)cs1`, the solubility (kinetic) worked out at 49.9 µg/mL (≈ 111 µM).

Take `Cc1ccc(-c2cc(C(=O)Nc3ccccn3)c3ccccc3n2)cc1`: the solubility (kinetic) was below 1 µg/mL.

`Cc1sc2ncnc(Sc3nnnn3-c3ccccc3)c2c1-c1ccccc1`: the kinetic solubility turned out to be 0.29 µg/mL (≈ 0.72 µM).

The molecule `Fc1cc(Nc2nc(-c3ccncc3)nc3ccccc23)ccc1N1CCCC1` gave a kinetic solubility below 1 µg/mL.

Regarding `CCCCC1CCC(C(=O)Nc2ccc(S(=O)(=O)Nc3nccs3)cc2)CC1` (stereo unspecified), the solubility (kinetic) is below 1 µg/mL.

The molecule `Clc1ccccc1CSc1nc2ncc(Br)cc2[nH]1` returned a kinetic solubility below 1 µg/mL.

Consider `COC(=O)CNC(=O)c1nc(-c2ccc(F)cc2)c2ccccn12`, for which the solubility (kinetic) is below 1 µg/mL.

`FC(F)(F)c1ccccc1-c1nc(NCc2ccc(-c3cccnc3)cc2)c2ccccc2n1` came in with a solubility (kinetic) below 1 µg/mL.

`O=C(Nc1ncc(Cc2cccc(C(F)(F)F)c2)s1)c1ccc(-c2cccc([N+](=O)[O-])c2)o1`: the solubility (kinetic) was below 1 µg/mL.

`Cc1ccc(C2=CSC(NC(=O)CSc3nncn3C)=NN2)cc1` had a kinetic solubility above 53 µg/mL.

In the case of `CN1CCCN(C(c2ccccc2)c2ccc(Cl)cc2)CC1` (stereo unspecified), the solubility (kinetic) was found to be 36.9 µg/mL (≈ 117 µM).

The molecule `O=c1cc(-c2nc(Nc3ccc(F)c(F)c3)c3ccccc3n2)cc[nH]1` displayed a solubility (kinetic) of 11.9 µg/mL (≈ 34.1 µM).

Consider `COc1ccc(Nc2cc3c(nc2OC)nc(CCc2ccccc2)n3C)cn1`, for which the solubility (kinetic) is 22.4 µg/mL (≈ 57.5 µM).

Regarding `O=C(c1nc(-c2ccc(Cl)nc2)c2ccccn12)N1CCCC1`, the kinetic solubility was found to be 2.73 µg/mL (≈ 8.36 µM). This solubility kinetic is about 8.2-fold lower than that of the molecule before.

With `CC(=O)c1c(C)oc2ccc(N(C(=O)Oc3ccccc3)S(=O)(=O)c3ccccc3)cc12`, the kinetic solubility was below 1 µg/mL.
